Measurements from patent publication US7279582B2, “Retroviral protease inhibiting compounds” (priority 1995, dated 2007).

Key:
uninfected MT4 cells = format: cell-based; conditions: n=4 duplicate determinations, read-out: LC50 (the source's name)
Excerpt: (§1) The anti-HIV activity of the compound of the invention can be determined in MT4 cells according to the following procedure. MT4 cells were infected with cell-free supernatant of HIVIIIB (previously frozen with known 50% tissue culture infectious dose (TCID50) at 0.003 multiplicity of infection (MOI) for one hour. After one hour infection, cells were washed twice to remove residual viruses, resuspended in culture media and seeded into 96-well tissue culture plates at 1×10^4 cells per well with various half-log dilutions of compounds. Uninfected cells are included as toxicity and cell controls. RPMI 1640 media (Gibco) with 10% fetal bovine serum were used as culture media. Various concentrations of human serum (Sigma) 50%, 25% and 12.5% were added to culture media resulting in final concentration of 60%, 35% and 22.5% total serum. All assay plates were incubated in 37 deg. cent. incubator for 5 days. MTT (sigma, 5 mg/ml stock in PBS) was added to all wells at 25 ul per well, incubate for 4 hours. 20% SDS with 0.02 N HCI in water was added at 50 ul per well to lyse cells. Plates incubated overnight for complete lyses were read on a microtitre plate reader at 570/650 nm wavelengths to determine cell optical density (O.D.). Raw data were analysed for percent inhibition by the following formula: O.D. test well−O.D. virus control×100 O.D. cell control−O.D. virus control The 50% effective concentration (EC50) was calculated by the median effect equation (Chou, 1975, Proc. Int. Cong. Pharmacol. 6th p. 619) to determine the efficacy of compound. The 50% lethal concentration (LC50) was calculated using uninfected MT4 cells.
(§2) Under these conditions, the following data were obtained (n=4 duplicate determinations: […]

HIVIIIB = assay: Anti-HIV activity in MT4 cells infected with HIVIIIB (MTT readout); format: cell-based; conditions: 0% plasma, 5 days, n=4 duplicate determinations
Excerpt: as §1, §2

HIV protease = HIV protease (Human immunodeficiency virus type 1 group M subtype B, UniProt P04585); assay: Fluorogenic assay for screening inhibitors of HIV protease; format: biochemical; conditions: Inhibitor Concentration 0.5 nanomolar
Method: Fluorogenic Assay for Screening Inhibitors of HIV Protease
The inhibitory potency of the compound of the invention can be determined by the following method.
The compound of the invention is dissolved in DMSO and a small aliquot further diluted with DMSO to 100 times the final concentration desired for testing. The reaction is carried out in a 6×50 mm tube in a total volume of 300 microliters. The final concentrations of the components in the reaction buffer are: 125 mM sodium acetate, 1 M sodium chloride, 5 mM dithiothreitol, 0.5 mg/ml bovine serum albumin, 1.3 μM fluorogenic substrate, 2% (v/v) dimethylsulfoxide, pH 4.5. After addition of inhibitor, the reaction mixture is placed in the fluorometer cell holder and incubated at 30° C. for several minutes. The reaction is initiated by the addition of a small aliquot of cold HIV protease. The fluorescence intensity (excitation 340 nm, emmision 490 nM) is recorded as a function of time. The reaction rate is determined for the first six to eight minutes. The observed rate is directly proportional to the moles of substrate cleaved-per unit time. The percent inhibition is 100×(1−(rate in presence of inhibitor)/(rate in absence of inhibitor)).
Fluorogenic substrate: Dabcyl-Gaba-Ser-Gln-Asn-Tyr-Pro-lle-Val-Gln-EDANS wherein DABCYL=4-(4-dimethylamino-phenyl)azobenzoic acid, Gaba=γ-aminobutyric acid, and EDANS=5-((2-aminoethyl)amino)-naphthalene-1-sulfonic acid.

Row | Structure (SMILES) | CC50 (uninfected MT4 cells) [nM] | IC50 (HIVIIIB) [µM] | Percent Inhibition (HIV protease) [%]
1 | Cc1ccnc(C)c1OCC(=O)N[C@@H](Cc1ccccc1)[C@@H](O)C[C@H](Cc1ccccc1)NC(=O)[C@H](C(C)C)N1CCNC1=O [Example 15, (2S,3S,5S)-2-(2,4-Dimethyl-pyridin-3-oxy-acetyl)amino-3-hydroxy-5-(2S-(1-imidazolidin-2-onyl)-3-methyl-butanoyl)amino-1,6-diphenylhexane] | > 100000 | 0.119 | 48
2 | Cc1cc(F)cc(C)c1OCC(=O)N[C@@H](Cc1ccccc1)[C@@H](O)C[C@H](Cc1ccccc1)NC(=O)[C@H](C(C)C)N1CCNC1=O [Example 12B, (2S,3S,5S)-2-(4-Fluoro-2,6-dimethylphenoxyacetyl)amino-3-hydroxy-5-(2S-(1-imidazolidin-2-onyl)-3-methyl-butanoyl)amino-1,6-diphenylhexane] | 19100 | 0.093 | 76.8
3 | CC(C)[C@@H](C(=O)N[C@@H](Cc1ccccc1)C[C@H](O)[C@H](Cc1ccccc1)NC(=O)O[C@H]1CO[C@H]2OCC[C@H]21)N1CCN(C)C1=O [Example 4F, (2S,3S,5S)-2-[(3R, 3aS, 6aR)-Bis-tetrahydrofuranyloxy]amino-3-hydroxy-5-[2S-(3-methyl-1-imidazolidin-2-onyl)-3-methylbutanoyl]amino-1,6-diphenylhexane] | > 100000 | 0.101 | 49.7
4 | Cc1cccc(C)c1OCC(=O)N[C@@H](Cc1ccccc1)[C@@H](O)C[C@H](NC(=O)[C@H](C(C)C)N1CCC(=O)NC1=O)C(C)C [Example 28, (2S,3S,5S)-2-(2,6-Dimethylphenoxyacetyl)amino-3-hydroxy-5-[2S-(1-tetrahydro-pyrimid-2,4-dionyl)-3-methylbutanoyl]amino-1-phenyl-6-methylheptane] | 72200 | 0.011 | 86.6
5 | Cc1cccc(C)c1OCC(=O)N[C@@H](Cc1ccccc1)[C@@H](O)C[C@H](Cc1ccccc1)NC(=O)[C@H](C(C)C)N1CC=NNC1=O [Example 30B, (2S,3S,5S)-2-(2,6-Dimethylphenoxyacetyl)amino-3-hydroxy-5[2S-(4-aza-4,5-dehydro-1-pyrimid-2-onyl)-3-methyl-butanoyl]amino-1,6-diphenylhexane] | 18000 | 0.003 | 91.0
6 | CC(C)(C)[C@@H](C(=O)N[C@@H](Cc1ccccc1)C[C@H](O)[C@H](Cc1ccccc1)NC(=O)OCc1cncs1)N1CCNC1=O [Example 7B, (2S,3S,5S)-2-(N-((5-Thiazolyl)-methoxycarbonyl)amino)-3-hydroxy-5-(2S-(1-imidazolidin-2-onyl)-3,3-dimethylbutanoyl)amino-1,6-diphenylhexane] | > 100000 | 0.204 | 67.1
7 | CC(C)[C@@H](C(=O)N[C@@H](Cc1ccccc1)C[C@H](O)[C@H](Cc1ccccc1)NC(=O)OCc1cncs1)N1CCNC1=O [Example 6F, (2S,3S,5S)-2-(N-((5-Thiazolyl)methoxycarbonyl)amino)-5-((2S-(1-imidazolidin-2-onyl)-3-methyl-butanoyl)-amino)-3-hydroxy-1,6-diphenylhexane] | > 100000 | 0.193 | 61.4
8 | Cc1cc(C)c(OCC(=O)N[C@@H](Cc2ccccc2)[C@@H](O)C[C@H](Cc2ccccc2)NC(=O)[C@H](C(C)C)N2CCNC2=O)c(C)c1 [Example 11B, (2S,3S,5S)-2-(2,4,6-Trimethylphenoxyacetyl)amino-3-hydroxy-5-(2S-(1-imidazolidin-2-onyl)-3-methylbutanoyl)amino-1,6-diphenylhexane] | 18200 | 0.19 | 91.1
9 | Cc1cccc(C)c1/C=C/C(=O)N[C@@H](Cc1ccccc1)[C@@H](O)C[C@H](Cc1ccccc1)NC(=O)[C@H](C(C)C)N1CCCNC1=O (relative stereo) [Example 19E] | 18000 | 0.395 | 68.5
